{"source": "patent US5696229A", "about": "“Polypeptide with laminin cell adhesion and morphogenesis activity” (The University of Virginia Patent Foundation, priority 1995, dated 1997)", "key": {"type II alveolar cells [1]": {"tested_on": "type II alveolar cells", "type": "cell-based, rat", "details": "for Area (of cellular structures): cells plated on 1.8 mg/cm^2 gelled protein substrate, 5 d, mean ± SD, alveoli defined as > 20 × 10^3 um^2; for Area: Table II, laminin A chain synthetic peptide preincubated with cells before plating on BMS, None = 108 ± 23; for Inhibition of alveolar formation by soluble laminin fragment or peptide: preincubated with cells prior to plating on BMS, day five; for Alveolar formation on substrate: cells plated on equal milligram amounts of gelled substrate", "from_the_text": "Type II alveolar cells were isolated from 250-g Sprague Dawley rats (Hilltop Laboratory Animals, Inc.) according to the method of Rannels (Rannels and Rannels, 1988). Briefly, an initial cardiac perfusion with 0.9% saline was followed by instillation of the airways with 0.1% elastase (Calbiochem Corp., La Jolla, Calif.) in Joklik's modified minimal medium (JMEM) containing 0.05% BaSO4. Elastase was inactivated by instillation of JMEM containing soybean trypsin inhibitor (0.08%; Sigma Chemical Co., St. Louis, Mo.), DNase (0.08%. Sigman Chemical Co.), and 50% newborn calf serum (GIBCO BRL, Gaithersburg, Md.). Lung tissue was minced, vortexed, and filtered through 160-μm nylon mesh (Tetko, Elmsford, N.Y.). Released cells were centrifuged for 10 min at 500 g, resuspended in JMEM containing 0.08% DNAse, and layered on a Percoll (Pharmacia Fine Chemicals) discontinuous density gradient. After centrifugation for 20 min (4° C.) , cells were collected at the 1.04/1.08 interface, washed in JMEM, brought up in DME containing 10% fetal bovine serum (FBS) (GIBCO BRL), and incubated for 30 min (37° C.) in 75-cm^2 tissue culture flasks to eliminate contaminating macrophage cells which rapidly adhere to the plastic surface. The resultant type II alveolar cell preparations were 95% viable as determined by trypan blue exclusion; purity was 93% as assessed by the presence of lamellar bodies visible with Hoffman optics at a magnification of 40 and by tannic acid staining. Analysis of total cellular DNA/well on each day of an experiment was performed in triplicate on trypsin/disease released cells using a DNA fluorometry assay (Labarca and Paigen, 1980).\nFreshly isolated type II alveolar cells were plated in 96-well plates at 20×10^3 cells/well on 500 μg/well (1.8 mg/cm^2) of gelled BMS of collagen I. Cells were cultured over 5 d with on media change performed on day three. Alveolar formation was analyzed at 24-h intervals over 5 d from photographic negatives (4×original magnification of central portion of each well) of triplicate wells. Images from negatives were transferred via video camera to an Image I imaging system (Universal Imaging Corp., West Chester, Pa.) and viewed on a color video monitor. The area of cellular structures was then determined and expressed as the mean±standard deviation. In some cases two size categories were distinguished: (a) single cells (200-300 μm^2) and (b) model alveoli (20×10^3 μm^2 or greater) with data expressed as percent of area occupied by each category.\n(§1) In alveolar inhibition studies, antibodies (50 μg/well) were incubated with gelled BMS (500 μg/well) in wells of 96-well plates for 60 min at 37° C. Unbound antibody was removed by three DME washes (200 μl/well) and then freshly isolated cells were added. Dose-response assays were performed on all antibodies. Laminin fragments and synthetic peptides (micromolar amount indicated on figures) were preincubated with freshly isolated type II alveolar cells in suspension for 30 min at 37° C. with gentle agitation every 5 min; cells together with fragment or peptide were then plated on BMS. Cell viability in the presence of each antibody, fragment, or synthetic peptide was accessed using the MTT (3-[4,5-dimethylthiazol-2-yl]-2,5-diphenyl tetrazolium bromide) assay (Chemicon International, Inc. Temecula, Calif.)."}, "[2]": {"tested_on": "HT1080 human fibrosarcoma cells", "experiment": "Cell adhesion studies, HT1080 cells on coated plates (Example 1)", "type": "cell-based", "procedure": "(§2) Plates coated overnight (4° C.) with equimolar amounts of laminin, laminin fragment, or synthetic peptide were blocked with 1% BSA (Sigma Chemical Co.) for 4 h (4° C.) and cells were subsequently added (2×10^4 /well) in serum-free media and incubated for 60 min (37° C.) according to the method of Aumailey and Timpl (1986). Inhibition studies were carried out by preincubating cells for 30 min (37°; gentle agitation every 5 min) with equimolar amounts of soluble fragment or peptide. Cells, together with soluble inhibitor, were then added to the coated plates. After a 60-min (37° C.) incubation, plates were washed twice with PBX, fixed with 1% glutarldehyde (Electron Microscopy Service Laboratories, Westmount, N.J.), PBS, washed, stained with 0.1% crystal violet (Serra Biochemicals, Hauppauge, N.Y.), washed twice with distilled water, solubilized in 0.5% Triton X-100 (Sigma Chemical Co.), and read on an ELISA plate reader (Molecular Devices Corp., Menio Park, Calif.) equipped with a 595-nm filter."}, "type II alveolar cells [3]": {"tested_on": "type II alveolar cells", "experiment": "Cell adhesion studies, type II alveolar cells on coated plates (Example 1)", "type": "cell-based, rat", "details": "coating 100 μM", "procedure": "as §2"}, "type II alveolar cells [4]": {"tested_on": "type II alveolar cells", "type": "cell-based, rat", "procedure": "as §1"}}, "note": "Peptide text beside a SMILES is read from it."}
{"molecule": "Collagen IV: Mouse collagen IV", "values": [{"measurement": "Area (of cellular structures)", "setting": "type II alveolar cells [1]", "result": "0.4 ± 0.2", "unit": "μm^2 × 10^3"}]}
{"molecule": "AASVVIAKSADR [scrambled IKVAV control peptide, reference compound]", "values": [{"measurement": "Area", "setting": "type II alveolar cells [1]", "result": "100 ± 18", "unit": "μm^2 × 10^3"}, {"measurement": "Inhibition of alveolar formation by soluble laminin fragment or peptide", "setting": "type II alveolar cells [1]", "result": "no effect on alveolar formation"}]}
{"molecule": "KQNCLSSRASFRGCVRNLRLSR [reference compound]", "values": [{"measurement": "Area", "setting": "type II alveolar cells [1]", "result": "110 ± 19", "unit": "μm^2 × 10^3"}, {"measurement": "Inhibition of alveolar formation by soluble laminin fragment or peptide", "setting": "type II alveolar cells [1]", "result": "no effect on alveolar formation"}]}
{"molecule": "O=C(O)CN(CCN(CC(=O)O)CC(=O)O)CC(=O)O", "note": "[EDTA, reference compound]", "values": [{"measurement": "Inhibition of HT1080 cell adhesion to SN-peptide", "setting": "[2]; cells preincubated with inhibitor, coating and inhibitor 100 μM, EDTA 2 mM", "result": "inhibited"}]}
{"molecule": "Laminin: Mouse laminin, large cross-shaped cell adhesive heterotrimer", "values": [{"measurement": "Percent cell attachment", "setting": "[2]; HT1080 cells, substrate coated at 35 μM, mean ± SD", "result": "80 ± 0.02", "unit": "%"}, {"measurement": "Adhesion of type II alveolar cells to coated substrate", "setting": "type II alveolar cells [3]", "result": "Adhesion"}, {"measurement": "Area (of cellular structures)", "setting": "type II alveolar cells [1]", "result": "35 ± 3", "unit": "μm^2 × 10^3"}, {"measurement": "Alveolar formation on substrate", "setting": "type II alveolar cells [1]", "result": "alveoli formed only on laminin"}]}
{"molecule": "collagen I: Rat tail collagen I, negative control substrate", "values": [{"measurement": "Alveolar formation on substrate", "setting": "type II alveolar cells [1]", "result": "completely ineffective"}]}
{"molecule": "CC[C@H](C)[C@H](NC(=O)[C@H](CO)NC(=O)[C@H](Cc1c[nH]cn1)NC(=O)[C@H](Cc1c[nH]c2ccccc12)NC(=O)[C@H](CCCNC(=N)N)NC(=O)[C@H](CC(N)=O)NC(=O)[C@H](CC(N)=O)NC(=O)[C@H](CC(N)=O)NC(=O)[C@@H](NC(=O)[C@@H](N)CO)[C@@H](C)CC)C(=O)N[C@@H](Cc1ccc(O)cc1)C(=O)N[C@H](C(=O)N[C@H](C(=O)N[C@@H](CCCNC(=N)N)C(=O)N[C@@H](Cc1ccccc1)C(=O)NCC(=O)N[C@@H](CC(N)=O)C(=O)N[C@@H](CCSC)C(=O)NCC(=O)N[C@@H](CO)C(=O)O)[C@@H](C)O)[C@@H](C)CC", "note": "[SN-peptide] (H-SINNNRWHSIYITRFGNMGS-OH)", "values": [{"measurement": "IC50", "setting": "type II alveolar cells [1]", "result": 50, "unit": "µM"}, {"measurement": "Cell viability", "setting": "type II alveolar cells [4]", "result": "97±1", "unit": "%"}]}
{"molecule": "WHSIYITR [middle 8-mer of SN-peptide from trypsin digestion]", "values": [{"measurement": "Inhibition of alveolar formation by soluble laminin fragment or peptide", "setting": "type II alveolar cells [1]", "result": "partial"}]}
{"molecule": "AASIKVAVSADR [peptide from mouse laminin A chain, antigen of ab-A[IK], reference compound]", "values": [{"measurement": "Area", "setting": "type II alveolar cells [1]", "result": "98 ± 22", "unit": "μm^2 × 10^3"}, {"measurement": "Inhibition of alveolar formation by soluble laminin fragment or peptide", "setting": "type II alveolar cells [1]", "result": "no effect on alveolar formation"}]}
{"molecule": "RGDS [functionally identical to RGDN, P1 fragment cell adhesion site, reference compound]", "values": [{"measurement": "Area", "setting": "type II alveolar cells [1]", "result": "105 ± 24", "unit": "μm^2 × 10^3"}, {"measurement": "Inhibition of alveolar formation by soluble laminin fragment or peptide", "setting": "type II alveolar cells [1]", "result": "no effect on alveolar formation"}]}
{"molecule": "CC[C@H](C)[C@H](NC(=O)[C@@H](N)CO)C(=O)N[C@@H](CC(N)=O)C(=O)N[C@@H](CC(N)=O)C(=O)N[C@@H](CC(N)=O)C(=O)N[C@@H](CCCNC(=N)N)C(=O)O", "note": "[SINNNR] (H-SINNNR-OH)", "values": [{"measurement": "IC50", "setting": "type II alveolar cells [1]", "result": 68, "unit": "µM"}]}
{"molecule": "FGNMGS [carboxy-terminal 6-mer of SN-peptide from trypsin digestion]", "values": [{"measurement": "Inhibition of alveolar formation by soluble laminin fragment or peptide", "setting": "type II alveolar cells [1]", "result": "minimal"}]}
{"molecule": "Entactin: Mouse entactin purchased from Upstate Biotechnology (protein, UniProt P10493 29-1245, looked up) Nidogen-1: LNRQELFPFGPGQGDLELEAGDDVVSPSLELIGELSFYDRTDITSVYVTTNGIIAMSEPPATEYHPGTFPPSFGSVAPFLADLDTTDGLGNVYYREDLSPFIIQMAAEYVQRGFPEVSFQPTSVVVVTWESVAPYGGPSSSPAEEGKRNTFQAVLASSNSSSYAIFLYPEDGLQFFTTFSKKDESQVPAVVGFSKGLVGFLWKSNGAYNIFANDRESIENLAKSSNAGHQGVWVFEIGSPATAKGVVSADVNLDLDDDGADYEDEDYDLVTSHLGLEDVATPSPSHSPRRGYPDPHNVPRILSPGYEATERPRGVPTERTRSFQLPAERFPQHHPQVIDVDEVEETGVVFSYNTGSQQTCANNRHQCSVHAECRDYATGFCCRCVANYTGNGRQCVAEGSPQRVNGKVKGRIFVGSSQVPVVFENTDLHSYVVMNHGRSYTAISTIPETVGYSLLPLAPIGGIIGWMFAVEQDGFKNGFSITGGEFTRQAEVTFLGHPGKLVLKQQFSGIDEHGHLTISTELEGRVPQIPYGASVHIEPYTELYHYSSSVITSSSTREYTVMEPDQDGAAPSHTHIYQWRQTITFQECAHDDARPALPSTQQLSVDSVFVLYNKEERILRYALSNSIGPVRDGSPDALQNPCYIGTHGCDSNAACRPGPGTQFTCECSIGFRGDGQTCYDIDECSEQPSRCGNHAVCNNLPGTFRCECVEGYHFSDRGTCVAAEDQRPINYCETGLHNCDIPQRAQCIYMGGSSYTCSCLPGFSGDGRACRDVDECQHSRCHPDAFCYNTPGSFTCQCKPGYQGDGFRCMPGEVSKTRCQLEREHILGAAGGADAQRPTLQGMFVPQCDEYGHYVPTQCHHSTGYCWCVDRDGRELEGSRTPPGMRPPCLSTVAPPIHQGPVVPTAVIPLPPGTHLLFAQTGKIERLPLERNTMKKTEAKAFLHIPAKVIIGLAFDCVDKVVYWTDISEPSIGRASLHGGEPTTIIRQDLGSPEGIALDHLGRTIFWTDSQLDRIEVAKMDGTQRRVLFDTGLVNPRGIVTDPVRGNLYWTDWNRDNPKIETSHMDGTNRRILAQDNLGLPNGLTFDAFSSQLCWVDAGTHRAECLNPAQPGRRKVLEGLQYPFAVTSYGKNLYYTDWKTNSVIAMDLAISKEMDTFHPHKQTRLYGITIALSQCPQGHNYCSVNNGGCTHLCLPTPGSRTCRCPDNTLGVDCIERK", "values": [{"measurement": "Area (of cellular structures)", "setting": "type II alveolar cells [1]", "result": "1 ± 0.5", "unit": "μm^2 × 10^3"}]}
